Experimental data taken from article PMC9743426, “Expanding the Chemical Space of Drug-like Passerini Compounds: Can α-Acyloxy Carboxamides Be Considered Hard Drugs?” (ACS Medicinal Chemistry Letters, 2022).

Key:
[1] = Hydrolytic (chemical) stability in Tris-HCl buffer pH 7.4; format: physicochemical; conditions: 50 mM Tris-HCl buffer pH 7.4, incubation 30 min, without microsomes
Experimental: (§1) For all 43 compounds, a first evaluation of their chemical and metabolic stabilities toward hydrolysis was performed by incubating them in buffer under physiological conditions (50 mM Tris-HCl, pH 7.4) and in mouse liver microsomes (Table 1). This model was chosen because, similar to the human liver, both of the carboxylesterase isoforms are present. […] A more interesting trend was instead possible to observe with benzoic acids.
(§2) Hydrolytic stability in MLM and HLM
(§3) The standard incubation mixture (200 µL final volume) was carried out in a 50 mM TRIS-HCl buffer (pH 7.4) containing 150 mM KCl, tween 80 as cosolvent (0.8 mg/mg protein), and the substrate (10 μM). After pre-equilibration of the mixture, an appropriate volume of MLM or HLM suspension was added to give a final protein concentration of 1.0 mg/mL. The mixture was shaken for 30 minutes at 37 °C. Control incubations were carried out without the presence or microsomes or in pure acetonitrile. Each incubation was stopped by the addition of 200 µL ice-cold acetonitrile, vortexed and centrifuged at 13000 rpm for 5 min. The supernatants were analyzed by LC-HRMS. […]

[2] = Hydrolytic stability in mouse liver microsomes (MLM); format: in vitro ADME; conditions: 30 min; for Residual substrate percentage, MLM: mouse liver microsomes 1.0 mg/mL protein, substrate 10 μM, 37 °C
Experimental: as §1, §2, §3

[3] = Hydrolytic stability in human liver microsomes (HLM); format: in vitro ADME; conditions: 30 min; for Residual substrate percentage, HLM: human liver microsomes 1.0 mg/mL protein, substrate 10 μM, 37 °C
Experimental: This was made in light of the fact that the overall metabolizing capability of murine hepatic enzymes, including carboxylesterases, is supposed to be higher compared to the human ones.[17]
as §2, §3

| Compound | Residual substrate percentage, buffer [1] [%] | Residual substrate percentage, MLM [2] [%] | Hydrolysis of the ester group in mouse liver microsomes (in words) [2] | Residual substrate percentage, HLM [3] [%] | Hydrolytic stability in human liver microsomes (in words) [3] |
| --- | --- | --- | --- | --- | --- |
| CC(C)(C)NC(=O)COC(=O)C(=O)c1ccccc1 [Compound 83] | <1 | <1 | completely unstable | – | – |
| CC(C)C(OC(=O)c1ccccc1)C(=O)NC(C)(C)C (centres unmarked) [Compound 59] | 94 | <1 | – | – | – |
| CC(C)(C)NC(=O)COC(=O)c1c(F)cccc1F [Compound 85] | >99 | <1 | completely hydrolyzed | – | – |
| COc1ccc(C(=O)OC(C(=O)NC(C)(C)C)C(C)C)cc1 (centres unmarked) [Compound 66] | 92 | <1 | – | – | – |
| CCCCCCC(OC(=O)c1ccccc1)C(=O)NC(C)(C)C (centres unmarked) [Compound 60] | 93 | <1 | – | – | – |
| CC(C)C(OC(=O)Cc1ccccc1)C(=O)NC(C)(C)C (centres unmarked) [Compound 74, 1-(tert-butylamino)-3-methyl-1-oxobutan-2-yl 2-phenylacetate] | >99 | 17 | easily hydrolyzed | – | – |
| CC(C)(C)NC(=O)C(OC(=O)c1ccccc1)c1ccccc1 (centres unmarked) [Compound 62] | >99 | <1 | – | – | – |
| CC(C)C(OC(=O)COc1ccccc1)C(=O)NC(C)(C)C (centres unmarked) [Compound 76, 1-(tert-butylamino)-3-methyl-1-oxobutan-2-yl 2-phenoxyacetate] | >99 | <1 | completely unstable | – | – |
| Cc1c(Br)cccc1C(=O)OCC(=O)NC(C)(C)C [Compound 89] | >99 | 1 | the hydrolysis of the ester was complete | <1 | easy hydrolysis |
| CCCCCCC(OC(=O)c1cccs1)C(=O)NC(C)(C)C (centres unmarked) [Compound 64] | >99 | <1 | – | <1 | instability |
| CC(C)(C)NC(=O)COC(=O)C(C)(C)Oc1ccc(Cl)cc1 [Compound 84] | >99 | <1 | completely unstable | 2 | instability |
| Cc1cccc(C)c1C(=O)OC(C(=O)NC(C)(C)C)C(C)C (centres unmarked) [Compound 93] | >99 | >99 | – | – | – |
| CC(C)(C)NC(=O)COC(=O)c1c(Cl)cccc1C(F)(F)F [Compound 96] | >99 | >99 | – | – | – |
| CC(C)C(OC(=O)C(C)(C)C)C(=O)NC(C)(C)C (centres unmarked) [Compound 73] | >99 | 30 | easily hydrolyzed | 52 | moderately more stable |
| CCCCCCCCCCCC(=O)OC(C(=O)NC(C)(C)C)C(C)C (centres unmarked) [Compound 77, 1-(tert-butylamino)-3-methyl-1-oxobutan-2-yl dodecanoate] | 77 | 7 | easily hydrolyzed | – | – |
| Cc1cccc(C)c1C(=O)OCC(=O)NC(C)(C)C [Compound 79] | 95 | 94 | – | – | – |
| CC(C)(C)NC(=O)C(OC(=O)c1ccccc1)c1ccc(Cl)cc1 (centres unmarked) [Compound 72] | >99 | <1 | rapidly cleaved | – | – |
| CC(C)(C)NC(=O)COC(=O)c1ccccc1-c1ccccc1 [Compound 88] | >99 | – | – | – | – |

| Compound | Residual substrate percentage, buffer [1] [%] | Residual substrate percentage, MLM [2] [%] | Hydrolysis of the ester group in mouse liver microsomes (in words) [2] | Residual substrate percentage, HLM [3] [%] | Hydrolytic stability in human liver microsomes (in words) [3] |
| --- | --- | --- | --- | --- | --- |
| CCCCCC(=O)OC(C(=O)NC(C)(C)C)C(C)C (centres unmarked) [Compound 71] | 91 | <1 | easily hydrolyzed | – | – |
| CC(C)(C)NC(=O)COC(=O)C(C)(C)c1ccc(Br)cc1 [Compound 91] | >99 | 12 | easily hydrolyzed | – | – |
| Cc1ccc(C(=O)OC(C(=O)NC(C)(C)C)C(C)C)cc1 (centres unmarked) [Compound 67] | 94 | <1 | – | – | – |
| CC(C)(C)NC(=O)COC(=O)c1ccccc1Cl [Compound 90] | >99 | <1 | the hydrolysis of the ester was complete | – | – |
| CC(C)(C)NC(=O)COC(=O)c1ccccc1I [Compound 87] | >99 | <1 | the hydrolysis of the ester was complete | – | – |
| Cc1ccccc1C(OC(=O)c1ccccc1)C(=O)NC(C)(C)C (centres unmarked) [Compound 56] | >99 | <1 | – | – | – |
| CCC(C(=O)OCC(=O)NC(C)(C)C)c1ccccc1 (centres unmarked) [Compound 92] | >99 | <1 | easily hydrolyzed | – | – |
| CC(C)(C)NC(=O)COC(=O)c1ccccc1 [Compound 61] | >99 | <1 | – | – | – |
| CC(C)(C)NC(=O)COC(=O)Cc1c(Cl)cccc1Cl [Compound 82] | >99 | 1 | easily hydrolyzed | – | – |
| CC(C)C(OC(=O)c1ccc(Cl)cc1)C(=O)NC(C)(C)C (centres unmarked) [Compound 68] | >99 | <1 | – | – | – |
| CC(=O)OC(C(=O)NC(C)(C)C)C(C)C (centres unmarked) [Compound 70] | 94 | 5 | easily hydrolyzed | – | – |
| CC(C)(C)NC(=O)COC(=O)c1ccccc1Br [Compound 86] | >99 | <1 | the hydrolysis of the ester was complete | – | – |
| CC(C)C(OC(=O)CCCCCc1ccccc1)C(=O)NC(C)(C)C (centres unmarked) [Compound 75, 1-(tert-butylamino)-3-methyl-1-oxobutan-2-yl 6-phenylhexanoate] | >99 | <1 | easily hydrolyzed | – | – |
| CC(C)(C)NC(=O)COC(=O)c1c(Cl)cccc1Cl [Compound 95] | >99 | 78 | – | – | – |
| Cc1ccccc1C(=O)OCC(=O)NC(C)(C)C [Compound 81] | >99 | <1 | the hydrolysis of the ester was complete | – | – |
| COc1ccc(C(OC(=O)c2ccccc2)C(=O)NC(C)(C)C)cc1 (centres unmarked) [Compound 63] | 92 | <1 | – | – | – |
| CC(C)C(OC(=O)c1ccc([N+](=O)[O-])cc1)C(=O)NC(C)(C)C (centres unmarked) [Compound 69] | >99 | <1 | – | – | – |
| Cc1cccc(C)c1C(=O)OCC(=O)NCc1ccccc1 [Compound 94] | >99 | >99 | – | – | – |
